Laboratory results: patent publication US20210380596A1, “UPADACITINIB CRYSTAL FORM AND PREPARATION METHOD THEREFOR AND USE THEREOF” (CRYSTAL PHARMACEUTICAL (SUZHOU) CO., LTD., priority 2019, published 2021)
≈ marks a conversion by molar mass, not a printed value. Where “and” joins values, the source holds several entries; their conditions need not be identical. Equal values may be shown once. Entries after “also recorded” stand apart in the source; their conditions may differ.

What was measured:
[1] = Flowability (compressibility index / Carr index); type: physicochemical; details: for Bulk density (ρ0): 5-mL measuring cylinder, 500 mg; for Flowability: criteria of ICH Q4B Annex 13; for Tapped density (ρf): tapping times: 1250
Description: Compressibility index or Carr index is usually utilized to evaluate the flowability of powder and granules during the drug product process. Compressibility index test method is as follows: a certain amount of powder was added into a measuring cylinder and bulk volume was recorded. Then the powder was tapped to make it in the tightest state and the tapped volume was recorded. The bulk density ρ0 and tapped density pf were calculated. The compressibility index was calculated according to c=(ρf−ρ0)/ρf.
Equipment: ZS-2E tap density tester.
Parameter: 5-mL measuring cylinder, 500 mg, tapping times: 1250.

[2] = FaSSIF, 37° C.; disclosed in WO2017066775A1; cited from earlier work
[3] = Adhesiveness (material sticking to the punch); type: physicochemical; details: 30 mg, Φ8 mm tooling, 10 kN held 30 s
Description: The amount of material sticking to the punch was weighed. The compression was repeated twice and the average amount of material sticking to the punch during the compression were recorded.

[4] = Compressibility (tablet hardness and tensile strength); type: physicochemical; details: for Diameter / Thickness: 80 mg, Φ6 mm tooling, 10 kN, after 24 h, tablets 1-3; for Average tensile strength: mean of three tablets
Description: An ENERPAC manual tablet press was used for compression. […] Until complete elastic recovery, hardness (H) was tested with an intelligent tablet hardness tester. Diameter (D) and thickness (L) were tested with a caliper. Tensile strength of the powder was calculated with the following formula: T=2H/πDL. Under a certain force, the greater the tensile strength, the better the compressibility.

[5] = Mechanical stability (tableting at 10 kN, manual grinding; XRPD); type: physicochemical
Description: 30 mg of Form CSII was weighed into the dies of a Φ8 mm round tooling and tableted by ENERPAC manual tablet press with 10 kN pressure. Crystalline form before and after tableting were checked by XRPD. […] 10 mg of Form CSII was weighed into a mortar and ground manually for 5 min. The crystalline form before and after grinding were checked by XRPD.

[6] = Stability of Form CSII drug substance on storage (XRPD, HPLC purity); type: physicochemical; details: for Chemical purity during storage: drug substance
Description: X-ray powder diffraction patterns in the present disclosure were acquired by a Bruker D2 PHASER or Bruker D8 Discover X-ray powder diffractometer. The parameters of the X-ray powder diffraction method of the present disclosure are as follows:
The method parameters for relative substances test in the present disclosure are as follows:
A certain amount of Form CSII sample was stored at different conditions of 4° C., 25° C./60% RH, 40° C./75% RH and 60° C./75% RH. Crystalline form was checked by XRPD before and after storage.

[7] = Stability of Form CSII in drug product (formulation process and storage); type: physicochemical; details: formulation and process of Tables 14 and 15
Description: Crystalline form before and after tableting were checked by XRPD.
The drug products of Form CSII were stored under 25° C./60% RH and 40° C./75% RH in closed dishes with 1 g of desiccant for 3 months to evaluate the stability of Form CSII in drug product.

[8] = Particle size distribution (Mastersizer 3000, wet mode); type: physicochemical; details: Isopar G containing 0.2% lecithin
Description: Proton nuclear magnetic resonance (H NMR) spectrum data were collected from a Bruker Avance II DMX 400M HZ NMR spectrometer. 1-5 mg of sample was weighed and dissolved in 0.5 mL of deuterated dimethyl sulfoxide to obtain a solution with a concentration of 2-10 mg/mL. The particle size distribution data in the present disclosure were acquired by a Mastersizer 3000 laser particle size analyzer of Malvern. The test is carried out in wet mode with a Hydro MV dispersing device, and the dispersion medium is Isopar G. The method parameters of the laser particle size analyzer are as follows:
The mixtures were mixed thoroughly and transferred into the Hydro MV. The measurement was started when the shading rate is in an appropriate position.

[9] = Kinetic solubility of Form CSII (saturated solutions, HPLC); type: physicochemical
Description: The method parameters of kinetic solubility test in the present disclosure are as follows:
A certain amount of Form CSII was suspended into pH=7.4 PBS, pH=6.5 FaSSIF and pH=5.0 FeSSIF at 25° C. or 37° C. to obtain saturated solutions. After equilibration for 24 h, 30 h and 48 h, the suspensions were filtered to obtain saturated solutions, and concentration was determined by HPLC.

[10] = listed as Form C in WO2017066775A1
[11] = 25° C./60% RH, closed, 3 months
[12] = 40° C./75% RH, closed, 3 months
[13] = FaSSIF pH 6.5, thermodynamic from solid, pH=6.5 FaSSIF, 37° C.
[14] = FeSSIF pH 5.0, thermodynamic from solid, pH=5.0 FeSSIF, 37° C.
[15] = PBS pH 7.4, aqueous buffer, thermodynamic from solid, pH=7.4 PBS, 25° C.

With `CC[C@@H]1CN(C(=O)NCC(F)(F)F)C[C@@H]1c1cnc2cnc3[nH]ccc3n12` [Form C, (3S,4R)-3-ethyl-4-(3H-imidazo[1,2-a]pyrrolo [2,3-e]pyrazin-8-yl)-N-(2,2,2-trifluoroethyl) pyrrolidine-1-carboxamide, reference compound] the “Bulk density (ρ0)” value [1, 10] was 0.3611 g/mL, the Flowability [1, 10] was “Very poor (32-37)” and the “Tapped density (ρf)” value [1, 10] was 0.5618 g/mL. For the same compound, the Solubility [2] was 220 µg/mL (≈ 578 µM), the “Average amount of material sticking to the punch” value [3, 10] was 0.21 mg and the Diameter [4, 10] was 6.00 mm and 6.01 mm. The Thickness [4, 10] was 2.14 mm and 2.18 mm and 2.07 mm and the Average tensile strength [4, 10] was 0.69 MPa.

With `CC[C@@H]1CN(C(=O)NCC(F)(F)F)C[C@@H]1c1cnc2cnc3[nH]ccc3n12` [Form CSII, (3S,4R)-3-ethyl-4-(3H-imidazo[1,2-a]pyrrolo [2,3-e]pyrazin-8-yl)-N-(2,2,2-trifluoroethyl) pyrrolidine-1-carboxamide] the “Bulk density (ρ0)” value [1] was 0.3295 g/mL, the Flowability [1] was “Excellent (≤10)” and the “Tapped density (ρf)” value [1] was 0.3548 g/mL. The Crystallinity after tableting ([5]; 10 kN pressure) was “remained basically unchanged”, the “Crystalline state after tableting” value ([5]; 10 kN pressure, Φ8 mm round tooling) was “does not change” and the “Crystalline state after grinding” value ([5]; ground manually for 5 min) was “does not change; also recorded: doesn't change”. The Crystallinity after grinding ([5]; ground manually for 5 min) was “remained basically unchanged”, the “Time kept stable (crystalline state unchanged)” value ([6]; 4° C.) was “at least 3 months” and the Purity ([6]; 4° C., closed, 3 months) was 99.41%. For the same compound, the Solid form ([6]; 4° C., closed, 3 months) was “Form CSII”, the Purity [6, 11] was 99.42% and the Solid form [6, 11] was “Form CSII”. For the same compound, the Purity ([6]; 25° C./60% RH, open, 3 months) was 99.43%, the Solid form ([6]; 25° C./60% RH, open, 3 months) was “Form CSII” and the Purity [6, 12] was 99.42%. For the same compound, the Solid form [6, 12] was “Form CSII”, the Purity ([6]; 40° C./75% RH, open, 3 months) was 99.44% and the Solid form ([6]; 40° C./75% RH, open, 3 months) was “Form CSII”. The Purity ([6]; 60° C./75% RH, closed, 1 month) was 99.43%, the Solid form ([6]; 60° C./75% RH, closed, 1 month) was “Form CSII” and the Purity ([6]; 60° C./75% RH, open, 1 month) was 99.48%. For the same compound, the Solid form ([6]; 60° C./75% RH, open, 1 month) was “Form CSII”, the Purity ([6]; Initial) was 99.35% and the Solid form ([6]; Initial) was “Form CSII”. The “Chemical purity during storage” value ([6]; 25° C./60% RH) was “above 99%”, the “Chemical purity during storage” value ([6]; 40° C./75% RH and 60° C./75% RH) was “above 99%” and the “Crystalline form in the formulation process (before and after tableting, XRPD)” value [7] was “stable”. For the same compound, the Particle size distribution [8] was “uniform”, the “Average amount of material sticking to the punch” value [3] was 0.16 mg and the solubility at 24 h [9, 13] was 740 µg/mL (≈ 1950 µM). The solubility at 30 h [9, 13] was 760 µg/mL (≈ 2000 µM), the solubility at 48 h [9, 13] was 830 µg/mL (≈ 2180 µM) and the solubility at 24 h [9, 14] was 1400 µg/mL (≈ 3680 µM). The solubility at 30 h [9, 14] was 1400 µg/mL (≈ 3680 µM), the solubility at 48 h [9, 14] was 1500 µg/mL (≈ 3940 µM) and the solubility at 24 h [9, 15] was 730 µg/mL (≈ 1920 µM). For the same compound, the solubility at 30 h [9, 15] was 740 µg/mL (≈ 1950 µM), the solubility at 48 h [9, 15] was 720 µg/mL (≈ 1890 µM) and the “Solubility compared with Form C” value ([9]; pH=7.4 PBS, FaSSIF and FeSSIF) was “higher”. The Diameter [4] was 6.05 mm and 6.04 mm and 6.03 mm, the Thickness [4] was 2.35 mm and 2.16 mm and 2.12 mm and the Average tensile strength [4] was 0.88 MPa.
